The target in this assay is A/Denmark/528/2009 (H1N1)pdm09 NA-H274Y (Influenza A virus, UniProt C3W5S3, H275Y). The assay is classed as biochemical, Influenza A virus A/Denmark/528/2009 (H1N1)pdm09.

Turning to `CCC(CC)O[C@@H]1C=C(C(=O)O)C[C@H](N)[C@H]1NC(C)=O` [oseltamivir, oseltamivir carboxylate], the “NAI susceptibility classification (WHO guidance)” value is recorded as “highly reduced inhibition (key: <10-fold, normal inhibition; 10–100 fold, reduced inhibition; >100-fold, highly reduced inhibition)”. For the compound `CCC(CC)[C@H](NC(C)=O)[C@@H]1[C@H](O)[C@@H](C(=O)O)C[C@H]1N=C(N)N` [peramivir], inhibition was half-maximal at 0.0235 µM (IC50) and the “NAI susceptibility classification (WHO guidance)” value was “highly reduced inhibition (key: <10-fold, normal inhibition; 10–100 fold, reduced inhibition; >100-fold, highly reduced inhibition)”.

One may read the IC50 as the concentration needed to halve the response being measured. A high value points to weaker potency in that assay.

(Values after article PMC11026403 (Communications Biology, 2024).)
